Source: patent US9328057B2, “Chiral arylketones in the treatment of neutrophil-dependent inflammatory diseases” (DOMPE' FARMACEUTICI S.P.A., priority 2002, dated 2016)

Test system: chemiotaxis of human PMN leucocytes (PMNs) stimulated by interleukin 8
Assay: chemiotaxis of human PMNs stimulated by IL-8 (48-well microchamber)
Format: cell-based
Conditions: Leucocyte, 10 min, IL-8 10 ng/mL, 10 minutes incubation at 37° C., read-out: IC50 (dose inhibiting 50% of the effect), chemiotaxis induced by IL-8 (converted)
Method: For evaluation of the compounds of the invention, polymorphonucleated blood cells were used obtained from heparinized blood of healthy adult volunteers by means of sedimentation on dextran. The mononucleated cells were removed by means of Ficoll/Hypaque, whilst the red blood cells were eliminated by treatment with hypotonic solutions. The cell vitality of the polymorphonucleated leucocytes (PMNs) was calculated by means of exclusion with Turk and Trypan Blue whilst after staining with Diff Quinck the percentage of the PM-nucleates on the cytocentrifugate was estimated (for details of the experimental techniques used see W. J. Ming et al., J. Immunol., 138, 1469, 1987). In each of the in vitro experiments, time periods of 10 minutes were used for the incubation of the PMNs with the compounds of the invention, operating at a temperature of 37° C.
In the experiments of chemiotaxis and in those designed for measuring the cytosol levels of the Ca^2+ ion, human recombinant IL-8 (Pepro Tech.) was used as stimulant: the liophilized protein was dissolved in HBSS (Hank's balanced salts solution) at a concentration of 100 ng/mL and was used after dilution in HBSS down to concentrations of 10 ng/mL in the chemiotaxis experiments and at the concentration of 25-50 ng/mL in the evaluation of the modifications of [Ca^2+]. […]

**Q.** How did the IC50 turn out when CC(=O)[C@H](C)c1ccc(CC(C)C)cc1 [R(−)-3-[(4′-isobutyl)phenyl]butan-2-one, (R)(−)-3-[(4′-isobutyl)phenyl]butan-2-one] was run?
**A.** Its IC50 is 0.5 nM.
